Data published in PubChem BioAssay (NCI).
Several values for one entry are separate records, joined by “and”; a condition that tells them apart may be missing. Equal entries are not always repeated.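 Cells were grown in 96-well plates and exposed to each compound for 48 hours at five concentrations; endpoints were interpolated linearly between bracketing concentrations, or set to the highest concentration if not reached. At the GI50, growth is halved. TGI: total growth inhibition.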 Where a SMILES comes first, the peptide text is derived from it. [ ]: non-standard residue; d: D form. The star is where a group is joined. ξ: configuration not given here. ξW = NC(Cc1c[nH]c2ccccc12)C(=O)O; X30 = O=C(O)[C@H]1CCC[C@H]1N*; ξF = NC(Cc1ccccc1)C(=O)O; Boc = CC(C)(C)OC(=O)*; ξK = NCCCCC(N)C(=O)O; ξT = CC(O)C(N)C(=O)O; OBn = c1ccc(CO*)cc1; tBu = CC(C)(C)*

Key:
Assay in all cases: growth of human tumour cells (NCI), 48 h
786-0 renal = test system: 786-0 renal
A498 renal = test system: A498 renal
A549 NSCLC = test system: A549 NSCLC
ACHN renal = test system: ACHN renal
CAKI-1 renal = test system: CAKI-1 renal
CCRF-CEM leukemia = test system: CCRF-CEM leukemia
COLO 205 colon = test system: COLO 205 colon
DU-145 prostate = test system: DU-145 prostate
EKVX NSCLC = test system: EKVX NSCLC
HCC-2998 colon = test system: HCC-2998 colon
HCT-116 colon = test system: HCT-116 colon
HCT-15 colon = test system: HCT-15 colon
HL-60(TB) leukemia = test system: HL-60(TB) leukemia
HOP-62 NSCLC = test system: HOP-62 NSCLC
HOP-92 NSCLC = test system: HOP-92 NSCLC
HS 578T breast = test system: HS 578T breast
HT29 colon = test system: HT29 colon
IGROV1 ovarian = test system: IGROV1 ovarian
K-562 leukemia = test system: K-562 leukemia
KM12 colon = test system: KM12 colon
LOX IMVI melanoma = test system: LOX IMVI melanoma
M14 melanoma = test system: M14 melanoma
MALME-3M melanoma = test system: MALME-3M melanoma
MCF7 breast = test system: MCF7 breast
MDA-MB-231 breast = test system: MDA-MB-231 breast
MDA-MB-435 = test system: MDA-MB-435
MDA-N = test system: MDA-N
MOLT-4 leukemia = test system: MOLT-4 leukemia
NCI-H226 lung = test system: NCI-H226 lung
NCI-H23 lung = test system: NCI-H23 lung
NCI-H460 lung = test system: NCI-H460 lung
NCI-H522 lung = test system: NCI-H522 lung
NCI/ADR-RES ovarian = test system: NCI/ADR-RES ovarian
OVCAR-3 ovarian = test system: OVCAR-3 ovarian
OVCAR-4 ovarian = test system: OVCAR-4 ovarian
OVCAR-5 ovarian = test system: OVCAR-5 ovarian
OVCAR-8 ovarian = test system: OVCAR-8 ovarian
PC-3 prostate = test system: PC-3 prostate
RPMI-8226 leukemia = test system: RPMI-8226 leukemia
RXF 393 renal = test system: RXF 393 renal
SF-268 CNS = test system: SF-268 CNS
SF-295 CNS = test system: SF-295 CNS
SF-539 CNS = test system: SF-539 CNS
SK-MEL-2 melanoma = test system: SK-MEL-2 melanoma
SK-MEL-28 melanoma = test system: SK-MEL-28 melanoma
SK-MEL-5 melanoma = test system: SK-MEL-5 melanoma
SK-OV-3 ovarian = test system: SK-OV-3 ovarian
SN12C renal = test system: SN12C renal
SNB-19 CNS = test system: SNB-19 CNS
SNB-75 CNS = test system: SNB-75 CNS
SR leukemia = test system: SR leukemia
SW-620 colon = test system: SW-620 colon
T-47D breast = test system: T-47D breast
TK-10 renal = test system: TK-10 renal
U251 CNS = test system: U251 CNS
UACC-257 melanoma = test system: UACC-257 melanoma
UACC-62 melanoma = test system: UACC-62 melanoma
UO-31 renal = test system: UO-31 renal

Compound: CC(C)C(NC(=O)CNC(=O)C1CCCN1C(=O)C(NC(=O)OC(C)(C)C)C(C)C)C(=O)NCC(=O)OCc1ccccc1 (stereo not given) (Boc-VPGVG-OBn; configuration not given here)
- TGI (786-0 renal): > 100 µM
- TGI (A498 renal): > 100 µM
- TGI (A549 NSCLC): > 100 µM
- TGI (ACHN renal): > 100 µM
- TGI (CAKI-1 renal): > 100 µM
- TGI (CCRF-CEM leukemia): > 100 µM
- TGI (COLO 205 colon): > 100 µM
- TGI (DU-145 prostate): > 100 µM
- TGI (EKVX NSCLC): > 100 µM
- TGI (HCC-2998 colon): > 100 µM
- TGI (HCT-116 colon): > 100 µM
- TGI (HCT-15 colon): > 100 µM
- TGI (HL-60(TB) leukemia): > 100 µM
- TGI (HOP-62 NSCLC): > 100 µM
- TGI (HOP-92 NSCLC): > 100 µM
- TGI (HS 578T breast): > 100 µM
- TGI (HT29 colon): > 100 µM
- TGI (IGROV1 ovarian): > 100 µM
- TGI (K-562 leukemia): > 100 µM
- TGI (KM12 colon): > 100 µM
- TGI (LOX IMVI melanoma): > 100 µM
- TGI (M14 melanoma): > 100 µM
- TGI (MALME-3M melanoma): > 100 µM
- TGI (MCF7 breast): > 100 µM
- TGI (MDA-MB-231 breast): > 100 µM
- TGI (MDA-MB-435): > 100 µM
- TGI (MDA-N): > 100 µM
- TGI (MOLT-4 leukemia): > 100 µM
- TGI (NCI-H226 lung): > 100 µM
- TGI (NCI-H23 lung): > 100 µM
- TGI (NCI-H460 lung): > 100 µM
- TGI (NCI-H522 lung): > 100 µM
- TGI (NCI/ADR-RES ovarian): > 100 µM
- TGI (OVCAR-3 ovarian): > 100 µM
- TGI (OVCAR-4 ovarian): > 100 µM
- TGI (OVCAR-5 ovarian): > 100 µM
- TGI (OVCAR-8 ovarian): > 100 µM
- TGI (PC-3 prostate): > 100 µM
- TGI (RPMI-8226 leukemia): > 100 µM
- TGI (RXF 393 renal): > 100 µM
- TGI (SF-268 CNS): > 100 µM
- TGI (SF-295 CNS): > 100 µM
- TGI (SF-539 CNS): > 100 µM
- TGI (SK-MEL-2 melanoma): > 100 µM
- TGI (SK-MEL-28 melanoma): > 100 µM
- TGI (SK-MEL-5 melanoma): > 100 µM
- TGI (SK-OV-3 ovarian): > 100 µM
- TGI (SN12C renal): > 100 µM
- TGI (SNB-19 CNS): > 100 µM
- GI50 (SNB-75 CNS): 35.3 µM and > 100 µM
- TGI (SNB-75 CNS): > 100 µM
- TGI (SR leukemia): > 100 µM
- TGI (SW-620 colon): > 100 µM
- TGI (T-47D breast): > 100 µM
- TGI (TK-10 renal): > 100 µM
- TGI (U251 CNS): > 100 µM
- TGI (UACC-257 melanoma): > 100 µM
- TGI (UACC-62 melanoma): > 100 µM
- TGI (UO-31 renal): > 100 µM

Compound: CC(OC(C)(C)C)C(NC(=O)C(CCCCNC(=O)OC(C)(C)C)NC(=O)C(Cc1c[nH]c2ccccc12)NC(=O)C(N)Cc1ccccc1)C(=O)NC(Cc1ccccc1)C(=O)N[C@@H]1CCC[C@@H]1C(=O)O (stereo not given in full) (H-[ξF][ξW][ξK](Boc)[ξT](tBu)[ξF]-X30)
- TGI (786-0 renal): > 100 µM
- TGI (A549 NSCLC): > 100 µM
- TGI (ACHN renal): > 100 µM
- TGI (CAKI-1 renal): > 100 µM
- TGI (CCRF-CEM leukemia): 92.4 µM
- TGI (COLO 205 colon): 76.2 µM
- TGI (DU-145 prostate): > 100 µM
- TGI (EKVX NSCLC): > 100 µM
- TGI (HCC-2998 colon): 41.1 µM
- TGI (HCT-116 colon): > 100 µM
- TGI (HL-60(TB) leukemia): 82.9 µM
- TGI (HOP-62 NSCLC): > 100 µM
- TGI (HOP-92 NSCLC): 88.3 µM
- TGI (HS 578T breast): 50.6 µM
- TGI (HT29 colon): 80.3 µM
- TGI (IGROV1 ovarian): > 100 µM
- TGI (K-562 leukemia): > 100 µM
- TGI (KM12 colon): 37.2 µM
- TGI (LOX IMVI melanoma): 60 µM
- TGI (M14 melanoma): > 100 µM
- TGI (MALME-3M melanoma): > 100 µM
- TGI (MCF7 breast): 62.5 µM
- TGI (MDA-MB-231 breast): > 100 µM
- TGI (MDA-MB-435): > 100 µM
- TGI (MDA-N): > 100 µM
- TGI (MOLT-4 leukemia): > 100 µM
- TGI (NCI-H226 lung): 52.4 µM
- TGI (NCI-H23 lung): > 100 µM
- TGI (NCI-H460 lung): > 100 µM
- TGI (NCI-H522 lung): 41 µM
- TGI (NCI/ADR-RES ovarian): > 100 µM
- TGI (OVCAR-3 ovarian): > 100 µM
- TGI (OVCAR-4 ovarian): > 100 µM
- TGI (OVCAR-5 ovarian): 40.6 µM
- TGI (OVCAR-8 ovarian): > 100 µM
- TGI (PC-3 prostate): > 100 µM
- TGI (RPMI-8226 leukemia): > 100 µM
- TGI (RXF 393 renal): > 100 µM
- TGI (SF-268 CNS): > 100 µM
- TGI (SF-295 CNS): > 100 µM
- TGI (SF-539 CNS): 36.5 µM
- TGI (SK-MEL-2 melanoma): 41.5 µM
- TGI (SK-MEL-28 melanoma): > 100 µM
- TGI (SK-MEL-5 melanoma): > 100 µM
- TGI (SK-OV-3 ovarian): > 100 µM
- TGI (SN12C renal): 67.2 µM
- TGI (SNB-19 CNS): 51.2 µM
- TGI (SNB-75 CNS): > 100 µM
- TGI (SR leukemia): > 100 µM
- TGI (SW-620 colon): > 100 µM
- TGI (T-47D breast): > 100 µM
- TGI (U251 CNS): 68.3 µM
- TGI (UACC-257 melanoma): > 100 µM
- TGI (UACC-62 melanoma): 85.5 µM
- TGI (UO-31 renal): > 100 µM

Compound: CN(C)C=Nc1c(Br)cc(Br)c2nonc12
- TGI (786-0 renal): > 100 µM
- TGI (A498 renal): > 100 µM
- TGI (A549 NSCLC): > 100 µM
- TGI (ACHN renal): > 100 µM
- TGI (CAKI-1 renal): > 100 µM
- TGI (CCRF-CEM leukemia): > 100 µM
- TGI (COLO 205 colon): > 100 µM
- TGI (DU-145 prostate): > 100 µM
- TGI (EKVX NSCLC): > 100 µM
- TGI (HCC-2998 colon): > 100 µM
- TGI (HCT-116 colon): > 100 µM
- TGI (HCT-15 colon): > 100 µM
- TGI (HL-60(TB) leukemia): > 100 µM
- TGI (HOP-62 NSCLC): > 100 µM
- TGI (HOP-92 NSCLC): > 100 µM
- TGI (HS 578T breast): > 100 µM
- TGI (HT29 colon): > 100 µM
- TGI (IGROV1 ovarian): > 100 µM
- TGI (K-562 leukemia): > 100 µM
- TGI (KM12 colon): > 100 µM
- TGI (M14 melanoma): > 100 µM
- TGI (MALME-3M melanoma): > 100 µM
- TGI (MCF7 breast): > 100 µM
- TGI (MDA-MB-231 breast): > 100 µM
- TGI (MDA-MB-435): > 100 µM
- TGI (MDA-N): > 100 µM
- TGI (MOLT-4 leukemia): > 100 µM
- TGI (NCI-H226 lung): > 100 µM
- TGI (NCI-H23 lung): > 100 µM
- TGI (NCI-H460 lung): > 100 µM
- TGI (NCI-H522 lung): > 100 µM
- TGI (NCI/ADR-RES ovarian): > 100 µM
- TGI (OVCAR-3 ovarian): > 100 µM
- TGI (OVCAR-4 ovarian): > 100 µM
- TGI (OVCAR-5 ovarian): > 100 µM
- TGI (OVCAR-8 ovarian): > 100 µM
- TGI (PC-3 prostate): > 100 µM
- TGI (RPMI-8226 leukemia): > 100 µM
- TGI (RXF 393 renal): > 100 µM
- TGI (SF-268 CNS): > 100 µM
- TGI (SF-295 CNS): > 100 µM
- TGI (SF-539 CNS): > 100 µM
- TGI (SK-MEL-2 melanoma): > 100 µM
- TGI (SK-MEL-28 melanoma): > 100 µM
- TGI (SK-MEL-5 melanoma): > 100 µM
- TGI (SK-OV-3 ovarian): > 100 µM
- TGI (SN12C renal): > 100 µM
- TGI (SNB-19 CNS): > 100 µM
- TGI (SNB-75 CNS): > 100 µM
- TGI (SR leukemia): > 100 µM
- TGI (SW-620 colon): > 100 µM
- TGI (T-47D breast): > 100 µM
- TGI (TK-10 renal): > 100 µM
- TGI (UACC-257 melanoma): > 100 µM
- TGI (UACC-62 melanoma): > 100 µM
- TGI (UO-31 renal): > 100 µM
